The results in this text go back to patent US9987381B2, “Radioligands for imaging the LPA-1 receptor” (BRISTOL-MYERS SQUIBB COMPANY, priority 2013, dated 2018).

Molecules are shown by their SMILES.

One experiment concerns the target T1, LPA1 (Macaca mulatta, UniProt H9EN64).
T1 construct: from tissue; host or cells: lung of living anaesthetised rhesus monkeys (in vivo PET)
As to the kind of experiment: PET blocking study of [11C]-BMT-136088 with BMS-986020. It counts as in vivo, rhesus monkeys. As to the method: For the blocking data reanalyzed here, each animal was scanned twice during the administration of [^11C]-BMT-136088, using a bolus plus infusion (B+I) protocol: at baseline first, then during the administration of the blocking drug, BMS-986020, also using a bolus plus infusion protocol.
In the blocking study, BMS-986020 was administered i.v. using a 10-min bolus ([…]) followed by a ˜230 min infusion (0.25 mg/kg/hr) for a total dose of 1.224±0.015 mg/kg.
Two rhesus monkeys were included in the blocking, test-retest, and saturation studies: one male, one female; age=4.8±0.8 y; weight=8.6±0.4 kg. Studies in the same animal were separated by at least 2 weeks to allow the animal to recover from anesthesia and other effects. Four rhesus monkeys (2M, 2F) were included in the dosimetry study.
Following a low-dose, CT scan used for attenuation correction and to delineate the lung regions of interest, [^11C]-BMT-136088 was injected using a computer-control pump with a bolus plus infusion protocol, with an initial 1-min bolus and a ˜119-min infusion. The volume injected during the initial bolus represented 100 min (Kbol) worth of infusion in the blocking and test-retest study, and 300 min worth of infusion in the saturation study.
Beginning at the start of each injection, a 120-minute time-of-flight list-mode acquisition on the mCT PET/CT scanner (Siemens Medical Solutions USA, Inc.) was performed. Dynamic PET scan data were reconstructed with corrections for point-spread function, attenuation, normalization, scatter, randoms, and dead time using a 3D OP-OSEM TOF algorithm. PET images were reconstructed into 33 frames, with the following frame timing: 6×30 sec; 3×1 min; 2×2 min; 22×5 min. Each frame contained 400×400×111 (x,y,z) voxels (2.04×2.04×2.0 mm).
Blood samples for PK for each blockade study session were obtained at −1, 60, 90, 120, 150, 210, 240 and 270 minutes after the start of BMS-986020 bolus plus infusion. Red cells were precipitated at 3200 rpm for 10 minutes at 10° C.; the plasma was divided into two aliquots and frozen at −80° C. until shipped for analysis. […]

The next experiment concerns the target T2, LPA1 receptor (Mus musculus, UniProt P61793).
T2 construct: Fresh tissues from naïve mouse lungs and bleomycin treated lungs were immersed into OCT; from tissue; host or cells: lung sections (10 µm) of naïve and bleomycin-treated female C57BL/6 mice
As to the kind of experiment: In vitro autoradiography of mouse lung sections: [18F] radioligand binding and displacement by blocking compound. Particulars: for displacement of [18F] radioligand vs total binding: 3.9 nM radioligand. How it is done:
The naïve lung mouse tissues were collected from female C57BL/6 mice (8-10 weeks old; 18-25 grams), the samples were stored in −80° C. degree freezer until use. The bleomycin treated animals consists of female C57BL/6 mice (8-10 weeks old; 18-25 grams) were anesthetized with 5% isoflurane the day before study initiation. Bleomycin was dissolved into sterile phosphate buffered saline to a concentration of 500 μg/ml. For injection, mice were anesthetized with 5% isoflurane and using a 1 cc syringe with a 27 g needle, 100 μl of the stock bleomycin solution was injected subcutaneously (SC) into the center of each shaved region (50 μg/site). The bleomycin was administered 5 days/week, Monday through Friday, and was injected into the same region each day until Day 28. Specifically the left lobe of lung was harvested and inflated using a 1:1 OCT (which consists of a mixture 10.24% w/w polyvinyl alcohol 4.26% w/w polyethylene glycol 85.50 w/w non-reactive ingredients)/phosphate buffered saline mixture.
Fresh tissues from naïve mouse lungs and bleomycin treated lungs were immersed into OCT and chilled in 2-methylbutane for 2-5 minutes until frozen. The tissues were then wrapped in foil/ZIPLOC® bag and stored at −80° C. Tissue sections of 10 μm thickness (collected as 2 sections/slide) were cut using a cryostat and thaw-mounted on glass microscope slides, allowed to air dry for approximately 30 minutes. Blocking studies with 1-(4′-(3-methyl-4-(((l-phenylethoxy)carbonyl)amino)isoxazol-5-yl)-[1,1′-biphenyl]-4-yl)cyclopropanecarboxylic acid at 0.1 nM, 1 nM and 10 nM respectively were conducted using the following conditions. The individual slides, 4 slides per concentration, were pre-incubated in a mixture of 50 mM Hepes, […], pH=7.4 and 0.05% Tween-20 buffer solution that contains only this buffer (total binding), as well as […] 1-(4′-(3-methyl-4-(((l-phenylethoxy)carbonyl)amino)isoxazol-5-yl)-[1,1′-biphenyl]-4-yl)cyclopropanecarboxylic acid, 1 nM 1-(4′-(3-methyl-4-(((1-phenylethoxy)carbonyl)amino)isoxazol-5-yl)-[1,1′-biphenyl]-4-yl)cyclopropanecarboxylic acid and 10 nM 1-(4′-(3-methyl-4-(((1-phenylethoxy)carbonyl)amino)isoxazol-5-yl)-[1,1′-biphenyl]-4-yl)cyclopropanecarboxylic acid for a 3 hour period. These individual slides were then incubated in the buffer solution containing 3.9 nM of [^18F]-1-(4′-(4-((((3-(fluoromethyl)benzyl)oxy)carbonyl)amino)-3-methylisoxazol-5-yl)-[1,1′-biphenyl]-4-yl)cyclopropanecarboxylic acid that was formulated in 10% ethanol 90% 0.5% sodium bicarbonate. This solution was diluted with 300 ml of buffer solution to generate a stock solution. From this stock solution, 40 ml was added to each incubation chamber. One of these chambers contained only the radioligand buffer solution, which is referred to as the total binding section. An additional 40 ml was added to each incubation chamber along with the relevant concentration of blocking compound (1-(4′-(3-methyl-4-(((1-phenylethoxy)carbonyl)amino)isoxazol-5-yl)-[1,1′-biphenyl]-4-yl)cyclopropanecarboxylic acid at 0.1 nM, 1 nM, 10 nM). Then the individual slides were incubated in the buffer solution containing the [^18F]-1-(4′-(4-((((3-(fluoromethyl)benzyl)oxy)carbonyl)amino)-3-methylisoxazol-5-yl)-[1,1′-biphenyl]-4-yl)cyclopropanecarboxylic acid radioligand and blocking compound for 1.5 hours at room temperature to reach maximum binding. After 4.5 hours of total incubation, slides from each treatment group were removed from the incubation solutions and placed in an ice-cold wash buffer (50 mM Hepes, 100 mM NaCl, and 0.05% Tween-20, pH=7.4) and rinsed 4 times. Slides were then dried under a stream of cold air for approximately 1 hour. The air-dried slides were exposed by placing the slides onto an imaging plate (BAS-SR 3545S) for 15 minutes at room temperature. The imaging plate was scanned using the bioimaging analyzer (Fujifilm Fluorescent Image Analyzer, FLA-9000). The pixel size of the autoradiogram images was 100 μm. […]
(In a radioligand displacement assay an active substance lowers the binding of a labelled ligand.)

T1 sequence (H9EN64 1-364): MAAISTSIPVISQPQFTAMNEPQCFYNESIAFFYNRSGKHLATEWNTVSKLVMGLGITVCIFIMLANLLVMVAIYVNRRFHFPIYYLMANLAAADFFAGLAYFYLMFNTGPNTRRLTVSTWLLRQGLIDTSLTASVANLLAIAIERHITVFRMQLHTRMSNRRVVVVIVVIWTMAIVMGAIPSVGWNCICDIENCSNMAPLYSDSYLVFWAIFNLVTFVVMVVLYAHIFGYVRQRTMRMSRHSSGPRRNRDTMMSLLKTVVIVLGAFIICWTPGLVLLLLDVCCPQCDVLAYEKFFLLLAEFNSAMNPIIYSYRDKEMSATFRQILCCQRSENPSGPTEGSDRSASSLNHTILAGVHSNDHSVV
T2 sequence (P61793 whole entry): as the sequence (H9EN64 1-364) above, with I4A, I8S, P22Q, H40Y, I61V, E193D, N194H, I269V, S331N, S335N counted along it

Take `Cc1noc(-c2ccc(-c3ccc(C4(C(=O)O)CC4)cc3)cc2)c1NC(=O)O[C@H](C)c1ccccc1` [BMS-986020]: the blockade effect on LPA1 (VT by MA1, all corrections incl. lung density and blood radioactivity, BMS-986020 i.v. bolus plus infusion) came to 54±11%. Besides, on LPA1 (at 1.25 mg/kg), the “occupancy of LPA1 binding” value is on record as ~100%. Also, on LPA1 (rhesus monkey, at 1.25 mg/kg, read-out: occupancy of LPA1 binding), the receptor occupancy at 1.25 mg/kg was determined as 103 ± 20%.
As to `Cc1noc(-c2ccc(-c3ccc(C4(C(=O)O)CC4)cc3)cc2)c1NC(=O)OC(C)c1ccccc1` (centres unmarked) [1-(4′-(3-methyl-4-(((1-phenylethoxy)carbonyl)amino)isoxazol-5-yl)-[1,1′-biphenyl]-4-yl)cyclopropanecarboxylic acid], the “radioligand displacement (FIG. 2)” value on LPA1 receptor (10 nM blocking compound, naïve and bleomycin treated mouse lung sections) was ~80%. Also, the “displacement of [18F] radioligand vs total binding” value on LPA1 receptor (bleomycin treated mouse lung tissue sections, 0.1 nM blocking compound) is recorded as 11.3+/−4.2%; on LPA1 receptor (bleomycin treated mouse lung tissue sections, 1 nM blocking compound) it was 55.5+/−2.3%; at LPA1 receptor (bleomycin treated mouse lung tissue sections, 10 nM blocking compound), 82.7%+/−1.4; at LPA1 receptor (naïve mouse lung tissue sections, 0.1 nM blocking compound), 18.2+/−7.6%; at LPA1 receptor (naïve mouse lung tissue sections, 1 nM blocking compound), 57.3+/−2.6%; on LPA1 receptor (naïve mouse lung tissue sections, 10 nM blocking compound), 72.6%+/−6.7.
Take `Cc1noc(-c2ccc(-c3ccc(C4(C(=O)O)CC4)cc3)cc2)c1NC(=O)OCc1cccc(C[18F])c1` [[^18F]-1-(4′-(4-((((3-(fluoromethyl)benzyl)oxy)carbonyl)amino)-3-methylisoxazol-5-yl)-[1,1′-biphenyl]-4-yl)cyclopropanecarboxylic acid]: at LPA1 receptor (bleomycin treated mouse lung section, trichrome collagen staining, FIG. 1), the “localisation of radioligand binding in lung” value is reported as “resides within positive collagen”.
